Drawing on PubChem BioAssay AID256 (DTP/NCI, 2004), this text covers T/C for 22 compounds.

“And” between values parts separate entries of the source, which are not always exact repeats. Equal entries are not always repeated. Toxic doses and inconclusive results are not listed.

This assay relates to CD2F1 mice, L1210 leukemia ip, survival T/C. Briefly: NCI In Vivo Anticancer Drug Screen. Data for tumor model L1210 Leukemia (intraperitoneal) in CD2F1 (CDF1) mice. The conditions noted are these: endpoint: mean survival time, higher = longer survival. An outline of the steps: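 Vehicle-treated tumor-bearing mice served as controls (C) for compound-treated mice (T). Reported figure is T divided by C.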

Where [1] appears, read: dose: 100.0 mg/kg/injection, schedule: Q01DX009 (ip), vehicle: saline with Tween-80.
[2] abbreviates: dose: 100.0 mg/kg/injection, schedule: Q04DX003 (ip), vehicle: saline with Tween-80.
The mark [3] stands for this setting: dose: 200.0 mg/kg/injection, schedule: Q01DX009 (ip), vehicle: saline with Tween-80.
Where [4] appears, read: dose: 200.0 mg/kg/injection, schedule: Q04DX003 (ip), vehicle: saline with Tween-80.
Where [5] appears, read: dose: 400.0 mg/kg/injection, schedule: Q01DX009 (ip), vehicle: saline with Tween-80.
Where [6] appears, read: dose: 400.0 mg/kg/injection, schedule: Q04DX003 (ip), vehicle: saline with Tween-80.
The mark [7] stands for this setting: dose: 100.0 mg/kg/injection, schedule: Q01DX009 (ip), vehicle: saline.
Setting [8] is: dose: 200.0 mg/kg/injection, schedule: Q01DX009 (ip), vehicle: saline.
[9] abbreviates: dose: 25.0 mg/kg/injection, schedule: Q01DX009 (ip), vehicle: Klucel (hydroxypropylcellulose) (HPC).
The mark [10] stands for this setting: dose: 50.0 mg/kg/injection, schedule: Q01DX009 (ip), vehicle: Klucel (hydroxypropylcellulose) (HPC).
Setting [11] is: dose: 100.0 mg/kg/injection, schedule: Q01DX009 (ip), vehicle: Klucel (hydroxypropylcellulose) (HPC).
Where [12] appears, read: dose: 200.0 mg/kg/injection, schedule: Q01DX009 (ip), vehicle: Klucel (hydroxypropylcellulose) (HPC).
[13] abbreviates: dose: 400.0 mg/kg/injection, schedule: Q01DX009 (ip), vehicle: Klucel (hydroxypropylcellulose) (HPC).
The mark [14] stands for this setting: dose: 12.5 mg/kg/injection, schedule: Q01DX009 (ip), vehicle: Klucel (hydroxypropylcellulose) (HPC).
The mark [15] stands for this setting: dose: 100.0 mg/kg/injection, schedule: Q01DX009 (ip), vehicle: saline sonified.
[16] abbreviates: dose: 200.0 mg/kg/injection, schedule: Q01DX009 (ip), vehicle: saline sonified.
The mark [17] stands for this setting: dose: 400.0 mg/kg/injection, schedule: Q01DX009 (ip), vehicle: saline sonified.
Where [18] appears, read: dose: 25.0 mg/kg/injection, schedule: Q04DX002 (ip), vehicle: saline with Tween-80.
Setting [19] is: dose: 50.0 mg/kg/injection, schedule: Q04DX002 (ip), vehicle: saline with Tween-80.
Where [20] appears, read: dose: 100.0 mg/kg/injection, schedule: Q04DX002 (ip), vehicle: saline with Tween-80.

`O=C1N(C2CCCCC2)CC2C(c3ccccc3)NNC12O` (configuration not stated): the T/C runs as follows: under setting [1], 103 % of control; under setting [2], 97 % of control; under setting [3], 90 % of control; under setting [4], 97 % of control; under setting [5], 100 % of control; under setting [6], 98 % of control.
For the compound `CCCC1=CC(C)(C)CC(C)=C1` (tested in a mixture with another compound), the T/C was 98 % of control (dose: 50.0 mg/kg/injection, schedule: Q01DX009 (ip), vehicle: saline with Tween-80); 96 % of control under setting [1]; 102 % of control under setting [2]; 100 % of control under setting [3]; 100 % of control under setting [4].
`O=C(Nc1ccccc1)c1ccc(S(=O)(=O)F)cc1`: the T/C was 101 % of control under setting [1], 106 % of control under setting [3] and 106 % of control under setting [5].
As for `C=Cc1nnnn1C12CC3CC(CC(C3)C1)C2`, the T/C is, setting by setting: (dose: 50.0 mg/kg/injection, schedule: Q01DX001 (ip), vehicle: saline with Tween-80) 106 % of control; (dose: 100.0 mg/kg/injection, schedule: Q01DX001 (ip), vehicle: saline with Tween-80) 112 % of control.
With `COc1ccc(Nc2nc(N)nc3c2ncn3C2OC(CO)C(O)C2O)cc1` (configuration not stated), the T/C (dose: 12.5 mg/kg/injection, schedule: Q01DX005 (ip), vehicle: distilled water + Tween-80) was 96 % of control; the T/C (dose: 25.0 mg/kg/injection, schedule: Q01DX005 (ip), vehicle: distilled water + Tween-80) was 98 % of control; the T/C (dose: 50.0 mg/kg/injection, schedule: Q01DX005 (ip), vehicle: distilled water + Tween-80) is 104 % of control; the T/C (dose: 100.0 mg/kg/injection, schedule: Q01DX005 (ip), vehicle: distilled water + Tween-80) is 111 % of control.
For `CNC(=O)Nc1ccc(OS(=O)(=O)N(C)C)cc1`, the T/C is 101 % of control under setting [2], 101 % of control under setting [4] and 101 % of control under setting [6].
With `N=C(N)N1CCc2ccccc2C1`, the T/C runs as follows: (dose: 18.8 mg/kg/injection, schedule: Q01DX009 (ip), vehicle: saline) 103 % of control; (dose: 37.5 mg/kg/injection, schedule: Q01DX009 (ip), vehicle: saline) 98 % of control; (dose: 75.0 mg/kg/injection, schedule: Q01DX001 (ip), vehicle: saline) 97 % of control; (dose: 75.0 mg/kg/injection, schedule: Q01DX009 (ip), vehicle: saline) 103 % of control.
Turning to `CCOC(=O)C1(C(=O)OCC)COC(C)(C)OC1`, the T/C runs as follows: under setting [7], 93 % of control; under setting [8], 94 % of control; (dose: 400.0 mg/kg/injection, schedule: Q01DX009 (ip), vehicle: saline) 94 % of control.
Regarding `CN1CC=C(N2CCOCC2)CC1`, the T/C runs as follows: (dose: 25.0 mg/kg/injection, schedule: Q04DX003 (ip), vehicle: saline) 109 % of control; (dose: 50.0 mg/kg/injection, schedule: Q04DX003 (ip), vehicle: saline) 103 % of control; (dose: 100.0 mg/kg/injection, schedule: Q04DX003 (ip), vehicle: saline) 103 % of control and 109 % of control.
In the case of `CCN(CC)CCCNc1cc(OC)cc2nc3cc(Cl)ccc3nc12`, the T/C was 98 % of control (dose: 12.5 mg/kg/injection, schedule: Q01DX009 (ip), vehicle: suspension in saline); 100 % of control and 101 % of control (dose: 25.0 mg/kg/injection, schedule: Q01DX009 (ip), vehicle: suspension in saline); 98 % of control and 105 % of control (dose: 50.0 mg/kg/injection, schedule: Q01DX009 (ip), vehicle: suspension in saline); 101 % of control and 108 % of control (dose: 100.0 mg/kg/injection, schedule: Q01DX009 (ip), vehicle: suspension in saline); 112 % of control (dose: 200.0 mg/kg/injection, schedule: Q01DX009 (ip), vehicle: suspension in saline).
For `COC(=O)/C(=N\NS(=O)(=O)c1ccc(C)cc1)c1ccccc1`, the T/C was 100 % of control under setting [9]; 102 % of control under setting [10]; 102 % of control under setting [11]; 91 % of control under setting [12]; 91 % of control under setting [13].
On to `OCC1CCC(CO)CC1` (configuration not stated), for which the T/C was 100 % of control (dose: 6.25 mg/kg/injection, schedule: Q01DX009 (ip), vehicle: Klucel (hydroxypropylcellulose) (HPC)); 95 % of control under setting [14]; 103 % of control under setting [9].
On to `O=C(NCCO)NCCO`, for which the T/C was 110 % of control under setting [15], 104 % of control under setting [16] and 110 % of control under setting [17].
As to `O=C1C2C3CCC(O3)C2C(=O)N1CO` (configuration not stated), the T/C by setting is: under setting [18], 110 % of control; under setting [19], 98 % of control; under setting [20], 91 % of control.
For the compound `CCCCCCCCc1ccc(O)c(Cl)c1`, the T/C under setting [2] is 94 % of control, the T/C under setting [4] was 91 % of control and the T/C under setting [6] is 94 % of control.
As for `O=[N+]([O-])c1ccc2c(c1)-c1[nH]c3ccccc3c1CS2`, the T/C is 102 % of control under setting [11] and 101 % of control under setting [12].
As for `CC(CCOP(=O)(N(CCCl)CCCl)N1CC1)OCc1ccccc1` (configuration not stated), the T/C reads like this: (dose: 22.0 mg/kg/injection, schedule: Q01DX001 (ip), vehicle: other) 108 % of control; (dose: 33.0 mg/kg/injection, schedule: Q01DX001 (ip), vehicle: other) 111 % of control; (dose: 50.0 mg/kg/injection, schedule: Q01DX001 (ip), vehicle: other) 153 % of control.
As to `CCN(CC)CCOC(=O)Cc1cccc2c(=O)cc(-c3ccccc3)oc12`, the T/C is 95 % of control under setting [14]; 95 % of control under setting [9]; 95 % of control (dose: 25.0 mg/kg/injection, schedule: Q01DX009 (ip), vehicle: saline); 92 % of control under setting [10]; 111 % of control (dose: 50.0 mg/kg/injection, schedule: Q01DX009 (ip), vehicle: saline); 89 % of control under setting [11]. Also, the T/C runs as follows: under setting [7], 96 % of control; under setting [12], 87 % of control; under setting [8], 111 % of control; under setting [13], 93 % of control.
With `CCOC(=O)N1C(=O)C2C3CCC(O3)C2C1=O` (configuration not stated), the T/C reads like this: under setting [18], 104 % of control; under setting [19], 90 % of control; under setting [20], 109 % of control.
`OC1C=CC2CC1C2` (configuration not stated): the T/C under setting [2] was 95 % of control, the T/C under setting [4] is 98 % of control and the T/C under setting [6] was 98 % of control.
As to `NC(=O)/C=C1\NC(=O)CS1`, the T/C reads like this: under setting [15], 97 % of control; under setting [2], 100 % of control; under setting [16], 103 % of control; under setting [4], 91 % of control; under setting [17], 88 % of control; under setting [6], 102 % of control.
For `CC(=O)OCC1(OC2OC(CNC(=O)N(C)N=O)C(OC(C)=O)C(OC(C)=O)C2OC(C)=O)OC(CNC(=O)N(C)N=O)C(OC(C)=O)C1OC(C)=O` (configuration not stated), the T/C was 102 % of control (dose: 12.5 mg/kg/injection, schedule: Q01DX009 (ip), vehicle: other); 102 % of control (dose: 25.0 mg/kg/injection, schedule: Q01DX009 (ip), vehicle: other); 109 % of control (dose: 50.0 mg/kg/injection, schedule: Q01DX009 (ip), vehicle: other); 105 % of control (dose: 100.0 mg/kg/injection, schedule: Q01DX009 (ip), vehicle: other); 119 % of control (dose: 200.0 mg/kg/injection, schedule: Q01DX009 (ip), vehicle: other).
